Patent US5830910A (priority 1995, dated 1998)
Entries after “also recorded” stand apart in the source; their conditions may differ.

Assays:
Assay type in all cases: cell-based, rat
[1] = tested on: cultured hippocampal neurons; assay: cells; details: pretreated 1 hr; 100 μM glutamate, 24 hr
[2] = tested on: cultured hippocampal neurons; assay: cells
Excerpt: (§1) Dissociated embryonic rat hippocampal cell cultures were established and maintained. All procedures conformed with the NIH Guide for the Care and Use of Laboratory Animals and were approved by the University of Kentucky Animal Care and Use Committee. Cultures were maintained on a polyethyleneimine-coated substrate in plastic 35-mm dishes or 96 wall plates (for cell survival studies) or glass-bottom 35-mm dishes (for [Ca^2+ ]i imaging studies). The cell density was ^~ 70-100 cells/mm^2. Cells were maintained in Eagle's minimum essential medium supplemented 10% with fetal bovine serum and containing 20 mM sodium pyruvate. […] Aβ25-35 (Bachem, lot ZJ744) and Aβ1-40 (Bachem, lot ZK600) were stored in the lyophilized form, and stocks were prepared immediately before use by dissolving the peptide at a concentration of 1 mM in sterile distilled water. […] Glutamate and colchicine (Sigma) were prepared as 200-500x stocks in saline. Cytochalasins D and E (Sigma) and calcium ionophore 4-bromo-A23187 (Calbiochem) were prepared as 500x stocks in dimethyl sulfoxide. Vitamin E (α-tocopherol; Sigma) was prepared as a 500x stock in ethanol. Nordihydroguaiaretic acid and FeSo4 were prepared as 500x stocks in sterile water.
Neuronal survival was quantified by counting viable neurons in the same microscope fields (10x objective) immediately before experimental treatment and at time points after treatment. In addition, cells were grown in 96-well plates and Alamar blue fluorescence (Alamar Laboratories)was quantified by using a fluorescence plate reader. Alamar Blue is a non-fluorescent substrate that, after reduction by cell metabolites, becomes fluorescent. Usually neurons that died in the time intervals (20-48 h) between examination points were absent. Viability of the remaining neurons was assessed by morphological criteria. Neutrons with intact neurites of uniform diameter and a soma with a smooth, round appearance were considered viable, whereas neurons with fragmented neurites and a vacuolated or swollen soma were considered nonviable. Survival values were expressed as percentages of the initial number of neurons present before experimental treatment. Statistical comparisons were made using ANOVA and Scheffe post-hoc tests for pairwise comparisons.
FIG. 5. […] Cytochalasin D was added to cultures 30 min prior to exposure to glutamate, and control cultures were exposed to 0.2% dimethylsulfoxide.
(A) Neuronal survival was quantified in cultures that had been pretreated with the indicated concentrations of cytochalasin D and then exposed to 50 μM glutamate for 20 h. Values represent the means and SEM of determinations made in four separate cultures. […] Pairwise statistical comparisons of cytochalasin-treated cultures with the control survival (Scheffe's test) indicated 1 nM cytochalasin D, P<0.05; 10 nM cytochalasin D, P<0.001; 100 and 1000 nM cytochalasin D, P<0.0001.
(B) Neuronal survival was quantified in cultures that had been pretreated with either vehicle (control) or 100 nM cytochalasin D and then exposed to the indicated concentrations of glutamate for 20 h. Values represent the means and SEM of determinations made in four separate cultures. […] ANOVA with Scheffe's post hoc test.
FIG. 6. (A) Cultures were pretreated with 100 nM cytochalasin D (CyD), 100 nM cytochalasin E (CyE), or 100 nM colchicine (Colch). Cultures were then exposed to 50 μM glutamate for 20 h. Values for neuronal survival represent the means and SEM of determinations made in four separate cultures. *P<0.001 compared to control value. **P<0.001 compared to value for cultures exposed to glutamate alone.
[…] Values represent the means and SEM of determinations made in four separate cultures. *P<0.01 compared to value for cultures exposed to 20 μM glutamate alone. **P<0.05 compared to cultures exposed to 50 μM glutamate alone.

[3] = tested on: actin filaments in cultured hippocampal neurons; assay: phalloidin fluorescence of actin filaments, neurons
Protocol: Hippocampal cells were exposed to cytochalasin D and then fixed for 30 min in 4% paraformaldehyde/phosphate-buffered saline. Cell membranes were permeabilized by incubating for 5 min in a solution of 0.2% Triton X-100 in phosphate-buffered saline. Cells were then incubated for 30 min in PBS containing 0.005 U/ml fluorescein-phalloidin (Molecular Probes). Cells were rinsed in water and mounted in Vectashield antifade solution (Vector Laboratories) . Fluorescence images were acquired using a Sarastro 2000 confocal laser scanning microscope with a 60x oil-immersion objective. All images were acquired using identical settings for excitation intensity and detector gain.
FIG. 4. (A) Micrographs are confocal laser scanning microscope images of cultured hippocampal cells stained with fluorescein-labeled phalloidin. Cells were exposed for 3 h to either vehicle (control; left) or 100 nM cytochalasin D (right) prior to staining with phalloidin. The top micrographs show several neurons (arrowheads point to neuronal cell bodies); note reduction in phalloidin fluorescence in cytochalasin-treatedneurons.
(B) Cytochalasin D and glutamate cause a reduction in neuronal phalloidin fluorescence. […] Values represent the mean fluorescence intensity per neuronal cell body (±SEM; n=15-18). […]

[4] = tested on: cultured hippocampal neurons; assay: neurotoxicity of combined exposure to Aβ and glutamate; details: 100 nM; 50 μM Aβ plus 20 μM glutamate, 48 h
Excerpt: Dissociated embryonic rat hippocampal cell cultures were established and maintained. All procedures conformed with the NIH Guide for the Care and Use of Laboratory Animals and were approved by the University of Kentucky Animal Care and Use Committee. Cultures were maintained on a polyethyleneimine-coated substrate in plastic 35-mm dishes or 96 wall plates (for cell survival studies) or glass-bottom 35-mm dishes (for [Ca^2+ ]i imaging studies). The cell density was ^~ 70-100 cells/mm^2. Cells were maintained in Eagle's minimum essential medium supplemented 10% with fetal bovine serum and containing 20 mM sodium pyruvate. […]
(§2) Neuronal survival was quantified by counting viable neurons in the same microscope fields (10x objective) immediately before experimental treatment and at time points after treatment. In addition, cells were grown in 96-well plates and Alamar blue fluorescence (Alamar Laboratories)was quantified by using a fluorescence plate reader. […] Viability of the remaining neurons was assessed by morphological criteria. […] Survival values were expressed as percentages of the initial number of neurons present before experimental treatment. […]
FIG. 13. […] Neuronal survival was assessed 48 h after treatment. […]

[5] = tested on: cultured hippocampal neurons; assay: calcium ionophore A23187 neurotoxicity; details: 100 nM, 1 h pretreatment
Excerpt: as §1
as §2, with “reader. Alamar Blue is a non-fluorescent substrate that, after reduction by cell metabolites, becomes fluorescent.” for “reader.”
FIG. 7. Cultures were pretreated for 1 h with 0.2% dimethylsulfoxide (control) or 100 nM cytochalasin D. Calcium ionophore A23187 was then added at the indicated concentrations and neuronal survival was assessed 8 h later. […]

| Compound | effect on glutamate neurotoxicity [1] | protection against glutamate toxicity ([2]; 100 nM, 50 μM glutamate, 20 h) | phalloidin staining in neurons ([3]; 100 nM, 1 h) | phalloidin staining in neurons ([3]; 10-1000 nM, 3 h) | effect on neurotoxicity of combined Aβ and glutamate [4] | protection against A23187 neurotoxicity [5] | neuronal survival upon exposure to glutamate ([2]; 100 nM pretreatment, 10 μM (P<0.05), 50 μM (P<0.001), 100 μM (P<0.02) glutamate, 20 h) | neurons killed upon exposure to glutamate ([2]; 100 nM pretreatment, 50 μM glutamate, 20 h) [%] | effect on neuronal survival, alone ([2]; 10-100 nM alone, 20-h exposure) |
| --- | --- | --- | --- | --- | --- | --- | --- | --- | --- |
| COc1cc2c(c(OC)c1OC)-c1ccc(OC)c(=O)cc1[C@@H](NC(C)=O)CC2 [Colchicine, colchicine, reference compound] | ineffective | did not protect neurons against glutamate toxicity |  |  |  |  |  |  |  |
| C=C1[C@@H](C)[C@H]2[C@H](Cc3ccccc3)NC(=O)[C@]23[C@H](OC(C)=O)/C=C/[C@@](C)(O)C(=O)[C@@H](C)C/C=C/[C@H]3[C@@H]1O [Cytochalasin D, cytochalasin D] | significantly attenuated |  | pronounced reduction in phalloidin staining in neurons; also recorded: loss of fluorescence | concentration-dependent reduction in phalloidin staining in neurons | attenuated significantly | essentially identical to that in control cultures | significantly greater | < 10 | no significant effect on neuronal survival |
